In patent publication US20250115571A1, “OXOPIPERAZINE DERIVATIVES” (Inthera Bioscience AG, priority 2017, published 2025):

Legend:
[1] = system: SiHa human HPV16-positive cervical cancer cells; assay: Cell-derived xenograft mouse model for cervical cancer (SiHa CDX); assay type: in vivo; details: for Tumor Size day 37: SiHa CDX, female BALB/c nude mice, Mean ± SEM; for T/C: day 37, tumor-to-control ratio (volume/volume)
Procedure: Female BALB/c nude mice (7-9 weeks of age) were injected with SiHa human HPV16-positive (Human Papillomavirus type 16) cervical cancer cells. The cells were inoculated subcutaneously into the left flank of 48 mice. When tumors reached a mean volume of approximately 111 mm^3, mice were randomly assigned to eight treatment groups of each six mice (TABLE 18). Body weights were measured three times weekly prior to the initiation of dosing and daily thereafter. Tumor burden was assessed by caliper measurement twice weekly. Dosing breaks were applied when tolerability issues arose (body weight loss>10%). The study was terminated four weeks post first dosing. The experiment was performed in the Crown Bioscience Ltd. (Beijing) testing facility (Ground Floor, Light Muller Building, Changping Sector of Zhongguancun Scientific Park, No. 21 Huoju Road, Changping District, Beijing, CHIN).

CT-26 cells = assay: Cell-derived syngeneic mouse model for colorectal carcinoma combined with anti-PD1 antibodies; assay type: in vivo; details: ten mice per group
Procedure: The cells were inoculated subcutaneously into the left flank of 60 mice. […] Body weights were measured daily until treatment start, then twice weekly. Tumor burden was assessed twice weekly by caliper measurement. The study was terminated four weeks post first dosing.

[2] = system: androgen receptor (AR)-target genes KLK3, TMPRSS2, SLC45A3 in LNCaP cells; assay: P300/CBP-androgen receptor target gene expression regulation in prostate cancer cells (RT-qPCR); assay type: cell-based, human; details: 300 nM added concomitantly to DHT (100 nM, 4 hours)
Procedure: LNCaP prostate cancer cells (CLS GmbH) were seeded at a density of 15′000 cells/cm^2 in 48-well cell culture-treated plates and cultured for 72 hours in RPMI1640 medium (Sigma-Aldrich) supplemented with Glutamax I (ThermoFisher-Gibco), “Antibiotic and Antimycotic Solution” (Sigma-Aldrich) and 1% fetal calf serum (Sigma-Aldrich). AR-driven gene expression response was induced by addition of the androgen signaling agonist dihydrotestosterone (Selleck Chemicals, Houston, TX, USA) to a concentration of 100 nanomol/Lt for 4 hours. Cells were treated with Compound 258 during dihydrotestosterone induction. Culture medium was carefully removed, cells were washed 1× with Phosphate-Buffered Saline (Sigma-Aldrich) and lysed using the SingleShot Cell Lysis Kit (Bio-Rad, Hercules, CA, USA). Gene expression of well-known AR-responsive genes prostate-specific antigen (KLK3, ThermoFisher), transmembrane serine protease 2 (TMPRSS2, ThermoFisher) and prostein (SLC45A3, ThermoFisher) was assessed by quantitative PCR after reverse transcription of the LNCaP RNA with the Applied Biosystem High-Capacity cDNA Reverse Transcription Kit (ThermoFisher). Gene expression was normalized against four reference genes (RPLP0, GUSB, GAPDH and ACTB, all probe detection systems were from Bio-Rad).

[3] = system: prostate-specific antigen (PSA); assay: Serum PSA (ELISA) in the castration-resistant prostate cancer patient-derived xenograft mouse model; assay type: in vivo; details: five mice with detectable tumors; daily 10 and 3 mg/kg (two mice) or 6 mg/kg (three mice); blood 3 h after the last dose
Procedure: Mice from groups 1, 3 and 4 of the CPRC prostate patient-derived xenograft model (TABLE 9, EXAMPLE 322) were used to analyze serum PSA at the end of the experiment. […] PSA was detected by ELISA (Human Kallikrein 3/PSA Quantikine ELISA Kit, R&D Systems, Minneapolis, MN, USA) according to manufacturer's instructions. Minimal relative expected PSA-levels were calculated based on minimal PSA/tumor size ratio of vehicle-treated mice.

[4] = system: Vascular Endothelial Growth Factor A (VEGF); assay: Tumor VEGF protein (ELISA) in HCT-116 colorectal cancer cell-derived xenograft; assay type: in vivo, mouse; details: HCT-116 xenograft, approximately 4 weeks of treatment with 3 mg/kg or 6 mg/kg
Procedure: (§1) Mice from groups 1, 2, 4 and 5 of the HCT-116 colorectal cancer model (TABLE 12, EXAMPLE 324) and MKN45 gastric cancer model (TABLE 14, EXAMPLE 325) were used to analyze tumor Vascular Endothelial Growth Factor A (VEGF) protein expression at the end of the experiment. Tumors homogenates were prepared using a 2× Lysis Buffer (RayBiotech Life, Norcross, GA, USA) according to manufacturer's instructions. VEGF was quantified in 50 micrograms tumor by ELISA (Human VEGF Quantikine ELISA Kit, R&D Systems) according to manufacturer's instructions.

[5] = system: Vascular Endothelial Growth Factor A (VEGF); assay: Tumor VEGF protein (ELISA) in MKN45 gastric cancer cell-derived xenograft; assay type: in vivo, mouse; details: approximately 3 weeks of treatment with 3 mg/kg or 6 mg/kg, effect less evident than in HCT-116
Procedure: as §1

[6] = 1 mg/kg, BID, p.o., listed as Compound 258
[7] = 3 mg/kg, BID/QD (p.o. BID, QD from treatment day 7 on)

With `CC(C)C[C@@H]1NCCN([C@@H](CC(C)C)C(=O)N2CCC3(C[C@@H]2C)OCC(CN2CCCC2)CO3)C1=O` (stereo partly drawn) [Compound 258, (3S)-1-[(2S)-4-methyl-1-oxo-1-[(3s,6s,8S)-8-methyl-3-(pyrrolidin-1-ylmethyl)-1,5-dioxa-9-azaspiro[5.5]undec-an-9-yl]pentan-2-yl]-3-(2-methylpropyl)piper-azin-2-one (^≠), isomer Z] the “Tumor Size day 37” value [1, 6] was 296 ± 27 mm^3, the T/C [1, 6] was 31.6% and the “Tumor Size day 37” value [1, 7] was 104 ± 30 mm^3. It also gave a T/C [1, 7] of 11.1%, a mice alive (CT-26 cells; day 21, 1 mg/kg p.o. QD + Anti-PD1 10 mg/kg i.p. BIW) of 10 and a mice alive (CT-26 cells; day 21, 1 mg/kg p.o. QD alone) of 10. It also gave a mice alive (CT-26 cells; day 21, 3 mg/kg p.o. QD + Anti-PD1 10 mg/kg i.p. BIW) of 10, a mice alive (CT-26 cells; day 21, 3 mg/kg p.o. QD alone) of 10 and a mice alive (CT-26 cells; day 23, 1 mg/kg p.o. QD + Anti-PD1 10 mg/kg i.p. BIW) of 10. The mice alive (CT-26 cells; day 23, 1 mg/kg p.o. QD alone) was 10, the mice alive (CT-26 cells; day 23, 3 mg/kg p.o. QD + Anti-PD1 10 mg/kg i.p. BIW) was 10 and the mice alive (CT-26 cells; day 23, 3 mg/kg p.o. QD alone) was 8. For the same compound, the mice alive (CT-26 cells; day 25, 1 mg/kg p.o. QD + Anti-PD1 10 mg/kg i.p. BIW) was 10, the mice alive (CT-26 cells; day 25, 1 mg/kg p.o. QD alone) was 5 and the mice alive (CT-26 cells; day 25, 3 mg/kg p.o. QD + Anti-PD1 10 mg/kg i.p. BIW) was 10. It also gave a mice alive (CT-26 cells; day 25, 3 mg/kg p.o. QD alone) of 6, a mice alive (CT-26 cells; day 28, 1 mg/kg p.o. QD + Anti-PD1 10 mg/kg i.p. BIW) of 7 and a mice alive (CT-26 cells; day 28, 1 mg/kg p.o. QD alone) of 2. For the same compound, the mice alive (CT-26 cells; day 28, 3 mg/kg p.o. QD + Anti-PD1 10 mg/kg i.p. BIW) was 9, the mice alive (CT-26 cells; day 28, 3 mg/kg p.o. QD alone) was 2 and the mice alive (CT-26 cells; day 30, 1 mg/kg p.o. QD + Anti-PD1 10 mg/kg i.p. BIW) was 6. The mice alive (CT-26 cells; day 30, 1 mg/kg p.o. QD alone) was 1, the mice alive (CT-26 cells; day 30, 3 mg/kg p.o. QD + Anti-PD1 10 mg/kg i.p. BIW) was 8 and the mice alive (CT-26 cells; day 30, 3 mg/kg p.o. QD alone) was 0. It also gave a mice alive (CT-26 cells; day 32, 1 mg/kg p.o. QD + Anti-PD1 10 mg/kg i.p. BIW) of 4, a mice alive (CT-26 cells; day 32, 1 mg/kg p.o. QD alone) of 0 and a mice alive (CT-26 cells; day 32, 3 mg/kg p.o. QD + Anti-PD1 10 mg/kg i.p. BIW) of 4. The mice alive (CT-26 cells; day 32, 3 mg/kg p.o. QD alone) was 0, the mice alive (CT-26 cells; day 34, 1 mg/kg p.o. QD + Anti-PD1 10 mg/kg i.p. BIW) was 4 and the mice alive (CT-26 cells; day 34, 1 mg/kg p.o. QD alone) was 0. The mice alive (CT-26 cells; day 34, 3 mg/kg p.o. QD + Anti-PD1 10 mg/kg i.p. BIW) was 4, the mice alive (CT-26 cells; day 34, 3 mg/kg p.o. QD alone) was 0 and the mice alive (CT-26 cells; day 36, 1 mg/kg p.o. QD + Anti-PD1 10 mg/kg i.p. BIW) was 4(*). The mice alive (CT-26 cells; day 36, 1 mg/kg p.o. QD alone) was 0, the mice alive (CT-26 cells; day 36, 3 mg/kg p.o. QD + Anti-PD1 10 mg/kg i.p. BIW) was 4(*) and the mice alive (CT-26 cells; day 36, 3 mg/kg p.o. QD alone) was 0. For the same compound, the “repression of PSA (KLK3) gene expression stimulation” value [2] was “complete repression”, the “repression of SLC45A3 gene expression stimulation” value [2] was 80% and the “repression of TMPRSS2 gene expression stimulation” value [2] was 85%. For the same compound, the “serum prostate-specific antigen (PSA) levels versus minimal relative expected PSA-levels” value [3] was “clear reduction”, the “tumor VEGF protein levels” value [4] was “significantly reduced” and the “tumor VEGF protein levels” value [5] was “significantly reduced”.
